Laboratory results from US8344100B2, “Poly-epitope peptide derived from thymidylate synthase having immunological and anti-tumour activity” (Universitá degli Studi di Siena, priority 2005, dated 2013).
Where a SMILES comes first, the peptide text is derived from it.

Experiments:
[1] = test system: MDA-MB-231, HT-29 and SW-1463 target cells; assay: Cytofluorimetric and immunoblotting analyses of target cells treated with 5-FU; format: cell-based, human; details: data not shown
[2] = test system: EL-4/HHD autologous leukemic cells; assay: Tumour growth in HHD mice inoculated with EL-4/HHD cells; format: in vivo, transgenic (HHD) mice; details: with weekly intraperitoneal 5-FU
Experimental: The results are given as the mean value ±SD of the maximum diameter.
In this study, six groups of five mice received different immunological treatments with or without chemotherapeutic treatment with 5-FU. The mice in groups A and B were administered a control peptide derived from the mumps virus (100 μg per mouse); the mice in groups C and D were administered a cocktail of the TS-1, TS-2 and TS-3 peptides (100 μg per mouse); and the mice in groups E and F were administered the TS/PP peptide (100 μg per mouse).
The mice received the first peptide administration subcutaneously at time 0, with recalls in the third and sixth week. Two weeks after the last administration, all animals were subcutaneously inoculated with 2×10^6 EL-4/HHD cells.
In order to evaluate the possible interaction between TS and the 5-FU treatment for vaccination purposes, seven days after the tumour cells inoculation, the mice in groups B, D and F underwent a chemotherapeutic treatment based on weekly intraperitoneal administration of 5-FU ([…]).

[3] = test system: breast and colon carcinoma tumour cells; assay: Viability of target cells exposed to 5-FU (hemocytometric count); format: cell-based, human; details: sub-lethal doses for 48 hours
Description: The viability of the target cells exposed to 5-FU was examined by means of a hemocytometric count after staining and was never less than 90%, thus excluding the possibility that the immunosensitisation was due to the large number of dead or already degenerating cells in the cytotoxicity assay.

[4] = test system: murine TS in EL-4/HHD cells; assay: Cytofluorimetric test of TS expression in EL-4/HHD cells; format: cell-based, mouse; details: sub-lethal dose, constitutive expression 35%
[5] = test system: HT-29 cells transfected with the HLA-A(*)02.01 gene; assay: 51Cr release cytotoxicity test of CTL lines against colon carcinoma cells HT-29; format: cell-based; details: HT-29 pretreated with 5-FU
Experimental: (§1) The lymphocyte lines generated in vitro using TS/PP were capable of destroying the target cells derived from colon carcinoma (the HT-29 and SW-1463 cell lines).
HLA-A (*)02.01 expression was induced by gene transfection on the membrane of HT29 target cells before every experiment. Specific lysis was calculated as follows: […]

SW-1463 cells = assay: 51Cr release cytotoxicity test of CTL lines against colon carcinoma cells SW-1463; format: cell-based; details: SW-1463 pretreated with 5-FU
Description: as §1

MDA-MB-231 cells = details: MDA-MB-231 pretreated with 5-FU
Experimental: Cytotoxic assays. The release of radioactive chrome (^51Cr) was assayed as described in previous studies [18].
Spontaneous release was determined in the plates to which 100 μl of medium was added without effector cells. The total radioactivity released was determined after treating the target with Triton x-100. HLA was blocked by using an anti-HLA-A2 antibody (A2.69, One Lambda, Inc., Chanoga Park, Calif., USA) or the anti-class I (pan A,B,C)-HLA antibody W6.32, which were incubated with the target cells for one hour before the cytotoxicity assay. The negative control was the UPC-10 monoclonal antibody.
The cytotoxicity tests carried out using the technique of ^51Cr release were performed using target cells coming from cell lines derived from breast carcinoma (MDA-MB-231) and colon carcinoma (HT-29 and SW-1463), before and after treatment with sub-lethal doses of 5-FU.

[6] = Anatomo-pathological study of organs (autoimmunity, toxicity); format: in vivo, transgenic (HHD) mice; details: lung, liver, spleen, kidney, brain, skin and mucosa
[7] = biological target: T1, HLA-A(*)02.01 molecule on cells (human); assay: T2 test (flow cytometry of HLA expression on T2 cells after exposure to the peptide)
T1 construct: whole, on cells; Class I MHC molecule on cells; also called HLA-A2; HLA-A2.1

[8] = biological target: T1, HLA-A(*)02.01 molecule on cells; assay: T2 test (flow cytometry, HLA-A*02:01 on T2 cells)

Molecule: O=c1[nH]cc(F)c(=O)[nH]1 [5-FU, 5-fluorouracil]
- TS expression ([1]; MDA-MB-231, HT-29, SW-1463): significant increase
- Class I HLA expression [1]: did not induce any change
- Neoplastic growth [2]: did not change neoplastic growth in any way
- Viability of the target cells [3]: ≥ 90%
- Expression of murine TS [4]: 55-70%

Molecule: CC[C@H](C)[C@H](NC(=O)[C@H](CCSC)NC(=O)[C@@H](N)Cc1ccc(O)cc1)C(=O)N[C@@H](C)C(=O)N[C@@H](Cc1c[nH]cn1)C(=O)N[C@H](C(=O)N[C@H](C(=O)NCC(=O)N[C@@H](CC(C)C)C(=O)N[C@@H](Cc1ccccc1)C(=O)N[C@@H](CC(C)C)C(=O)N[C@@H](CC(=O)O)C(=O)N[C@@H](CO)C(=O)N[C@@H](CC(C)C)C(=O)NCC(=O)N[C@@H](Cc1ccccc1)C(=O)N[C@@H](CO)C(=O)N[C@H](C(=O)N[C@H](C(=O)N[C@@H](CC(C)C)C(=O)NCC(=O)N[C@@H](CC(=O)O)C(=O)N[C@@H](C)C(=O)N[C@@H](Cc1c[nH]cn1)C(=O)N[C@H](C(=O)N[C@@H](Cc1ccc(O)cc1)C(=O)N[C@@H](CC(C)C)C(=O)O)[C@@H](C)CC)[C@@H](C)O)[C@@H](C)O)[C@@H](C)O)[C@@H](C)CC [TS/PP] (H-YMIAHITGLFLDSLGFSTTLGDAHIYL-OH; N-terminus and C-terminus assumed)
- Lysis after target cell pre-treatment with sub-lethal 5-FU doses [5]: significantly increased
- Lysis after target cell pre-treatment with sub-lethal 5-FU doses (SW-1463 cells): significantly increased
- Lytic activity after target cell pre-treatment with sub-lethal 5-FU doses (MDA-MB-231 cells): significantly increased
- Degeneration, autoimmunity or toxicity [6]: do not indicate any autoimmunity or toxicity phenomena

B1: TS/PP poly-epitope peptide (YMIAHITGLFLDSLGFSTTLGDAHIYL) (peptide)
peptide: YMIAHITGLFLDSLGFSTTLGDAHIYL
notes: also called 28-amer peptide
- binding result [7]: no binding

B2: TS-1 peptide (TLGDAHIYL) (peptide)
peptide: TLGDAHIYL
notes: Synthetic 9-mer
- binding result [8]: binds

B3: TS-3 peptide (FLDSLGFST) (peptide)
peptide: FLDSLGFST
notes: Synthetic 9-mer
- binding result [8]: binds

B4: TS-2 peptide (YMIAHITGL) (peptide)
peptide: YMIAHITGL
notes: Synthetic 9-mer
- binding result [8]: binds
